Source: ChEMBL document CHEMBL5247607, “Design, synthesis and biological evaluation of a new series of arylidene indanones as small molecules for targeted therapy of non-small cell lung carcinoma and prostate cancer” (Eur J Med Chem, 2022)
Active and inactive are the calls of the source. No cut-off for these calls is given here.

Key:
[1] = Selectivity index, ratio of IC50 for cytotoxicity against human CCD 19Lu cells to IC50 for cytotoxicity against human A549 cells; type: toxicity, cell-based; settings: CCD 19Lu cells versus A549 cells, read-out: Ratio IC50
[2] = Cytotoxicity against human CCD 19Lu cells assessed as inhibition of cell growth incubated for 24 hrs by MTT assay; type: toxicity, cell-based
[3] = Cytotoxicity against human hTERT-HPNE cells assessed as inhibition of cell growth incubated for 24 hrs by MTT assay; type: toxicity, cell-based
[4] = tested on: PANC-1; experiment: Cytotoxicity against human PANC-1 cells assessed as inhibition of cell growth incubated for 24 hrs by MTT assay; type: functional, cell-based; settings: PANC-1, 24 h
[5] = target: Cathepsin D (Homo sapiens) (UniProt P07339); experiment: Inhibition of cathepsin D (unknown origin) at 100 uM
[6] = tested on: A549; experiment: Cytotoxicity against human A549 cells assessed as inhibition of cell growth incubated for 24 hrs by MTT assay; type: functional, cell-based; settings: A549, 24 h
[7] = target: Procathepsin L (Homo sapiens) (UniProt P07711); experiment: Inhibition of cathepsin L (unknown origin) at 100 uM
[8] = tested on: A549; experiment: Induction of apoptosis in human A549 cells assessed as activation of caspase-3 by measuring caspase-3 negative cells at IC50 incubated for 24 hrs by flow cytometry analysis (reference value: 91.1%); type: functional
[9] = tested on: PANC-1; experiment: Induction of mitochondrial membrane potential loss in human PANC-1 cells assessed as polarized cells at IC50 incubated for 24 hrs by JC-1 staining based flow cytometry assay (reference value: 92%); type: functional
[10] = target: Cathepsin D (Homo sapiens) (UniProt P07339); experiment: Inhibition of cathepsin D (unknown origin) at 100 uM relative to control
[11] = tested on: A549; experiment: Inhibition of DNA synthesis in human A549 cells at 1.49 uM incubated for 24 hrs by BrdU incorporation assay relative to control; type: functional
[12] = tested on: A549; experiment: Induction of morphological changes in human A549 cells assessed as cell shrinkage at 5.96 uM incubated for 24 hrs by acridine orange/ethidium bromide staining based fluorescence microscopic analysis; type: functional
[13] = tested on: A549; experiment: Induction of morphological changes in human A549 cells assessed as formation of apoptotic bodies at 5.96 uM incubated for 24 hrs by acridine orange/ethidium bromide staining based fluorescence microscopic analysis; type: functional, cell-based
[14] = tested on: A549; experiment: Induction of mitochondrial membrane potential loss in human A549 cells assessed as depolarized cells at IC50 incubated for 24 hrs by JC-1 staining based flow cytometry assay (reference value: 6.9%); type: functional
[15] = tested on: A549; experiment: Inhibition of DNA synthesis in human A549 cells at 2.98 uM incubated for 24 hrs by BrdU incorporation assay relative to control; type: functional
[16] = tested on: PANC-1; experiment: Induction of morphological changes in human PANC-1 cells assessed as formation of apoptotic bodies at 5.96 uM incubated for 24 hrs by acridine orange/ethidium bromide staining based fluorescence microscopic analysis; type: functional, cell-based
[17] = tested on: PANC-1; experiment: Induction of apoptosis in human PANC-1 cells assessed as late apoptotic cells at IC50 incubated for 24 hrs by annexin V-FITC/PI staining based flow cytometry analysis (reference value: 0.2%); type: functional
[18] = tested on: PANC-1; experiment: Induction of apoptosis in human PANC-1 cells assessed as early apoptotic cells at IC50 incubated for 24 hrs by annexin V-FITC/PI staining based flow cytometry analysis (reference value: 0%); type: functional
[19] = tested on: A549; experiment: Induction of apoptosis in human A549 cells assessed as early apoptotic cells at IC50 incubated for 24 hrs by annexin V-FITC/PI staining based flow cytometry analysis (reference value: 5.6%); type: functional
[20] = tested on: A549; experiment: Induction of mitochondrial membrane potential loss in human A549 cells assessed as polarized cells at IC50 incubated for 24 hrs by JC-1 staining based flow cytometry assay (reference value: 90.6%); type: functional
[21] = tested on: PANC-1; experiment: Induction of apoptosis in human PANC-1 cells assessed as total cell viability at IC50 incubated for 24 hrs by annexin V-FITC/PI staining based flow cytometry analysis (reference value: 84.4%); type: functional
[22] = tested on: A549; experiment: Induction of apoptosis in human A549 cells assessed as increase in intracellular calcium level at 5.96 uM by Fluo-4-AM staining based flow cytometry analysis; type: functional, cell-based
[23] = Selectivity index, ratio of IC50 for cytotoxicity against human hTERT-HPNE cells to IC50 for cytotoxicity against human PANC-1 cells; type: toxicity, cell-based; settings: hTERT-HPNE cells versus PANC-1 cells, read-out: Ratio IC50
[24] = tested on: A549; experiment: Induction of apoptosis in human A549 cells assessed as activation of caspase-3 by measuring caspase-3 positive cells at IC50 incubated for 24 hrs by flow cytometry analysis (reference value: 8.4%); type: functional
[25] = tested on: PANC-1; experiment: Induction of apoptosis in human PANC-1 cells assessed as activation of caspase-3 by measuring caspase-3 positive cells at IC50 incubated for 24 hrs by flow cytometry analysis (reference value: 1.8%); type: functional
[26] = tested on: A549; experiment: Induction of morphological changes in human A549 cells assessed as chromatin condensation at 5.96 uM incubated for 24 hrs by acridine orange/ethidium bromide staining based fluorescence microscopic analysis; type: functional, cell-based
[27] = tested on: PANC-1; experiment: Inhibition of DNA synthesis in human PANC-1 cells at 5.96 uM incubated for 24 hrs by BrdU incorporation assay relative to control; type: functional
[28] = tested on: PANC-1; experiment: Induction of morphological changes in human PANC-1 cells assessed as chromatin condensation at 5.96 uM incubated for 24 hrs by acridine orange/ethidium bromide staining based fluorescence microscopic analysis; type: functional, cell-based
[29] = tested on: PANC-1; experiment: Induction of mitochondrial membrane potential loss in human PANC-1 cells assessed as depolarized cells at IC50 incubated for 24 hrs by JC-1 staining based flow cytometry assay (reference value: 5%); type: functional
[30] = tested on: A549; experiment: Induction of apoptosis in human A549 cells assessed as late apoptotic cells at IC50 incubated for 24 hrs by annexin V-FITC/PI staining based flow cytometry analysis (reference value: 6.5 %); type: functional
[31] = tested on: A549; experiment: Inhibition of DNA synthesis in human A549 cells at 5.96 uM incubated for 24 hrs by BrdU incorporation assay relative to control; type: functional
[32] = tested on: PANC-1; experiment: Induction of morphological changes in human PANC-1 cells assessed as cell shrinkage at 5.96 uM incubated for 24 hrs by acridine orange/ethidium bromide staining based fluorescence microscopic analysis; type: functional
[33] = tested on: PANC-1; experiment: Induction of apoptosis in human PANC-1 cells assessed as activation of caspase-3 by measuring caspase-3 negative cells at IC50 incubated for 24 hrs by flow cytometry analysis (reference value: 98.5 %); type: functional
[34] = tested on: A549; experiment: Induction of apoptosis in human A549 cells assessed as total cell viability at IC50 incubated for 24 hrs by annexin V-FITC/PI staining based flow cytometry analysis (reference value: 85.6 %); type: functional
[35] = tested on: PANC-1; experiment: Induction of morphological changes in human PANC-1 cells assessed as cell shrinkage at 13.58 uM incubated for 24 hrs by acridine orange/ethidium bromide staining based fluorescence microscopic analysis; type: functional
[36] = tested on: PANC-1; experiment: Induction of morphological changes in human PANC-1 cells assessed as chromatin condensation at 13.58 uM incubated for 24 hrs by acridine orange/ethidium bromide staining based fluorescence microscopic analysis; type: functional, cell-based
[37] = tested on: PANC-1; experiment: Induction of morphological changes in human PANC-1 cells assessed as formation of apoptotic bodies at 13.58 uM incubated for 24 hrs by acridine orange/ethidium bromide staining based fluorescence microscopic analysis; type: functional, cell-based
[38] = tested on: PANC-1; experiment: Inhibition of DNA synthesis in human PANC-1 cells at IC50/4 to IC50 concentration incubated for 24 hrs by BrdU incorporation assay; type: functional, cell-based
[39] = tested on: PANC-1; experiment: Potency index, ratio of cisplatin IC50 for test compound IC50 for cytotoxicity against human PANC-1 cells assessed as inhibition of cell growth incubated for 24 hrs by MTT assay; type: functional

Sequence of Cathepsin D (Homo sapiens) (P07339 65-162 limits assumed): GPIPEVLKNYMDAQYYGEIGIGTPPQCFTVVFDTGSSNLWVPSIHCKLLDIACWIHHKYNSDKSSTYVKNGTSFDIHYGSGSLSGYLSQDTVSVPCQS
Sequence of Cathepsin D (Homo sapiens) (P07339 169-412 limits assumed): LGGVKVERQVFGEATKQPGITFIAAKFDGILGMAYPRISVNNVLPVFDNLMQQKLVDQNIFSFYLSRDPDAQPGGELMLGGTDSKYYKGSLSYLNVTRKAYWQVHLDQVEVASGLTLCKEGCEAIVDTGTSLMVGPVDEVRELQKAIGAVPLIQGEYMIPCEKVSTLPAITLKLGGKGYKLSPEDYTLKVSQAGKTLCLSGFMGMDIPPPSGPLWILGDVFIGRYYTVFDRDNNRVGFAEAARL
Sequence of Procathepsin L (Homo sapiens) (P07711 114-333 limits assumed): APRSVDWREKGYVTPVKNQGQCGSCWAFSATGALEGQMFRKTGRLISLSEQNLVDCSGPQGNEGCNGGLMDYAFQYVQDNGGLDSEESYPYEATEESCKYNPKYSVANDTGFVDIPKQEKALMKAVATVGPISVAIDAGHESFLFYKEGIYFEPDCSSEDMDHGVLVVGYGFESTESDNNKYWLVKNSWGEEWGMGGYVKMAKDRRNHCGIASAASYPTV

Row | SMILES | selectivity ratio [1] | IC50 at 24 h [2] [µM] | IC50 at 24 h [3] [µM] | IC50 [4] [µM] | inhibition [5] | IC50 [6] [µM] | inhibition [7] | Activity [9] [%] | inhibition [10] [%] | Activity [17] [%] | Activity [18] [%] | Activity [21] [%] | selectivity ratio [23] | Activity [25] [%] | Activity [29] [%] | Activity [33] [%] | further results
1 | CC(=O)Nc1ccc(/C=C2\Cc3cc4c(cc3C2=O)OCO4)cc1 | > 13.5 | > 1560 | 57 | 160 | inactive | 115 | inactive |  |  |  |  |  |  |  |  |  | 
2 | CCN(CC)c1ccc(/C=C2\Cc3cc4c(cc3C2=O)OCO4)cc1 | > 128 | > 1490 | > 1490 | < 11.6 |  | < 11.6 | inactive | 29.7 | 30.4 | 1.5 | 3.5 | 90.9 | > 128 | 3.1 | 68.4 | 97.6 | Activity [8]: 96.1%; inhibition at 1.49 µM [11]: 22.1%; Activity [12]: Active; Activity [13]: Active; Activity [14]: 66.8%; inhibition at 2.98 µM [15]: 24.2%; Activity [16]: Active; Activity [19]: 26.7%; Activity [20]: 65.1%; Activity [22]: Active; Activity [24]: 3.9%; Activity [26]: Active; inhibition at 5.96 µM [27]: 23.6%; Activity [28]: Active; Activity [30]: 27%; inhibition at 5.96 µM [31]: 39.6%; Activity [32]: Active; Activity [34]: 38.8%
3 | CN1CCN(c2ccc(/C=C3\Cc4cc5c(cc4C3=O)OCO5)cc2)CC1 | > 23.8 | > 1380 | > 1380 | 156 |  | 57.9 | inactive |  | 26 |  |  |  | > 8.82 |  |  |  | 
4 | O=C1/C(=C/c2ccc(-n3cncn3)cc2)Cc2cc3c(cc21)OCO3 | > 23.3 | > 1510 | > 1510 | 13.6 | inactive | 64.9 | inactive | 29.5 |  | 0.4 | 0.1 | 94 | > 111 | 9.1 | 58.6 | 93.5 | Activity [35]: Active; Activity [36]: Active; Activity [37]: Active; inhibition [38]: inactive; Ratio IC50 [39]: 3
